Assay [1] has as its target T1, BRD4 BD2 (Homo sapiens, UniProt O60885).
T1 construct: made in house
Put plainly: AlphaScreen binding assay, BRD4 Bromodomain 2. The protocol:
(§1) The binding of Example compounds to BRD4 Bromodomain 1 and BRD4 Bromodomain 2 was assessed using 384-well AlphaScreen assay technology. His-epitope tagged BRD4 BD144-168 and BRD4 BD2333-460 were cloned, expressed, and purified to homogeneity. BRD4 BD1 and BRD4 BD2 binding and inhibition was assessed by monitoring the engagement of biotinylated Histone H4 (1-21) K5/8/12/16 tetra-acetylated peptide with the targets using the AlphaScreen technology (PerkinElmer). Specifically, in a 384-well black or white flat bottom plate, BRD4 BD1 (50 nM final) or BRD4 BD2 (100 nM final) was combined with peptide (50 nM final for BD1 or 100 nM final for BD2) in 50 mM HEPES (pH 7.3), 100 mM NaCl, 0.1% (w/v) BSA, and 0.01% (w/v) Triton X-100 either in the presence of DMSO (final 1.25% DMSO) or compound dilution series in DMSO. Alpha streptavidin donor beads and Nickel-chelate acceptor beads were added to a final concentration of 10 μg/ml each. After a minimum of 1 hour equilibration, plates were read on a BMG PHERAstar FS multi-label reader (BMG LabTech). The half maximal inhibitory concentration (IC50) values were calculated using IDBS Activity Base software with a four parameter logistic curve fit by the equation y=A+((B−A)/(1+((C/x)^D))), wherein A denotes the bottom plateau of the curve, B denotes the top plateau of the curve, C denotes the x value at the middle of the curve, D denotes the slope factor, x denotes the original known x values, and y denotes the original known y values. Data was fitted using the Levenburg Marquardt algorithm.

Assay [2] concerns the target T2, BRD4 BD1 (Homo sapiens, UniProt O60885).
T2 construct: made in house
Description: AlphaScreen binding assay, BRD4 Bromodomain 1. On the procedure:
as §1
(Bead proximity is the source of the signal in Alpha formats.)

The IC50 is the concentration needed to halve the response being measured. On to `CC(=O)N1c2ccc(-c3cnn(C4COC4)c3)cc2N(C(=O)CC(C)C)C[C@@H]1C` [Example I-105, (S)-1-(4-acetyl-3-methyl-7-(1-(oxetan-3-yl)-1H-pyrazol-4-yl)-3,4-dihydroquinoxalin-1 (2H)-yl)-3-methylbutan-1-one], for which the IC50 in assay [1] is 0.05 to 0.5 µM; in assay [2], over 10 µM.
Take `CO[C@@H](C(=O)N1C[C@H](C)N(C(C)=O)c2ccccc21)c1ccccc1` [Example I-740]: the half-inhibitory concentration (IC50) in assay [1] is over 0.5 µM; in assay [2], over 10 µM.
In the case of `COc1ccc(OC)c(S(=O)(=O)N2C[C@H](C)N(C(C)=O)c3ccccc32)c1` [Example I-930], the results for the half-maximal inhibitory concentration (IC50) in assay [1] and in assay [2] were over 0.5 µM and over 10 µM, respectively.
Take `CC(=O)N1c2ccc(N3CCCC3)cc2N(C(=O)c2ccco2)C[C@@H]1C` [Example I-993]: the IC50 in assay [1] was 0.05 to 0.5 µM; in assay [2] it was 1 to 10 µM.
As to `COC(=O)N1c2ccc(-c3ccc4c(c3)CCN4S(C)(=O)=O)cc2N(C(=O)Oc2ccccn2)C[C@@H]1C` [Example I-1329], the IC50 in assay [1] fell in the range of 0.05 to 0.5 µM; in assay [2], 1 to 10 µM.
With `CC(=O)N1c2ccc(-c3ccc(S(C)(=O)=O)cc3)cc2N(C(=O)Nc2ccc(C)cc2)C[C@@H]1C` [Example I-974], the IC50 in assay [1] fell in the range of 0.05 to 0.5 µM; in assay [2], 1 to 10 µM.
Turning to `CC(=O)N1c2ncc(-c3ccc(S(C)(=O)=O)cc3)cc2N(C(=O)c2ccco2)C[C@@H]1C` [Example I-271], the figures for the IC50 in assay [1] and in assay [2] were 0.05 to 0.5 µM and 1 to 10 µM, respectively.
For `CC(=O)N1c2ccccc2N(CC2CCCCC2)C[C@@H]1C` [Example I-910], the IC50 in assay [1] is over 0.5 µM; in assay [2], over 10 µM.
For `CC(=O)N1c2ccc(-c3cnn(CC#N)c3)cc2N(C(=O)C2CC2)C[C@@H]1C` [Example I-675], the 50% inhibitory concentration (IC50) in assay [1] fell in the range of 0.05 to 0.5 µM; in assay [2], 1 to 10 µM.
For the compound `CC(=O)N1c2ccc(-c3ccc(C(=O)Nc4ccccc4)cc3)cc2N(C(=O)OC(C)C)C[C@@H]1C` [Example I-535], the IC50 lay within 0.05 to 0.5 µM in assay [1] and 1 to 10 µM in assay [2].
Take `C[C@H]1CN(C(=O)C2CC2)c2cc(-c3ccc(C(=O)NCCN)cc3)ccc2N1C(=O)C1CC1` [Example I-452]: the values for the IC50 in assay [1] and in assay [2] were 0.05 to 0.5 µM and 1 to 10 µM, respectively.
For `CC(=O)N1c2ccc(-c3ccc(S(C)(=O)=O)cc3)cc2N(C(=O)Nc2ccccc2)C[C@@H]1C` [Example I-964], the values for the IC50 in assay [1] and in assay [2] were 0.05 to 0.5 µM and 1 to 10 µM, respectively.
Taken in the same sequence, the figures for `CC(=O)N1c2ccccc2N(C(=O)c2cccc3[nH]ccc23)CC1C` (stereo not drawn) [Example I-770] were over 0.5 µM and over 10 µM.
For `CC[C@H]1CN(C(=O)c2ccco2)c2cc(-c3ccc(S(C)(=O)=O)cc3)ccc2N1C(C)=O` [Example I-6, (S)-1-(2-ethyl-4-(furan-2-carbonyl)-6-(4-(methylsulfonyl)phenyl)-3,4-dihydroquinoxalin-1(2H)-yl)ethan-1-one], the IC50 is 0.05 to 0.5 µM in assay [1] and 1 to 10 µM in assay [2].
For the compound `CC(=O)N1c2ccc(-c3ccc(S(C)(=O)=O)cc3)cc2N(C(=O)Oc2ccccn2)C[C@@H]1C` [Example I-1314], the figures for the IC50 in assay [1] and in assay [2] were 0.05 to 0.5 µM and 1 to 10 µM, respectively.
Consider `CC(=O)N1c2ccccc2N(Cc2ccncc2)C[C@@H]1C` [Example I-912], for which the results for the IC50 in assay [1] and in assay [2] were over 0.5 µM and over 10 µM, respectively.
Taken in the same sequence, the figures for `CC(=O)N1c2ccc(-c3cnn(CC(=O)N4CCC4)c3)cc2N(C(=O)C2CC2)C[C@@H]1C` [Example I-672] were 0.05 to 0.5 µM and 1 to 10 µM.
Regarding `COC(=O)N1c2ccc(-c3cnn(C4CC4)c3)cc2N(C(=O)OC2COC2)C[C@@H]1C` [Example I-999], the half-maximal inhibitory concentration (IC50) in assay [1] is 0.05 to 0.5 µM; in assay [2] it was 1 to 10 µM.
Taken in the same sequence, the figures for `C[C@H]1CN(C(=O)c2ccco2)c2cc(-c3ccc(S(C)(=O)=O)cc3)ccc2N1C(=O)C(F)(F)F` [Example I-361] were over 0.5 µM and over 10 µM.
Turning to `CC(=O)N1c2ccccc2N(C(=O)CN2CCS(=O)(=O)CC2)C[C@@H]1C` [Example I-767], the IC50 is over 0.5 µM in assay [1] and over 10 µM in assay [2].
As to `CC(=O)N1c2ccc(-c3cnn(C4COC4)c3)cc2N(C(=O)[C@@H]2CC2(Cl)Cl)C[C@@H]1C` (single isomer, unassigned) [Example I-112], the IC50 in assay [1] was in the range of 0.05 to 0.5 µM; in assay [2], 1 to 10 µM.
For the compound `COc1ccc(Cl)c(OC(=O)N2C[C@H](C)N(C(C)=O)c3ccc(-c4cnn(C5CC5)c4)cc32)c1` [Example I-531], the IC50 was 0.05 to 0.5 µM in assay [1] and 1 to 10 µM in assay [2].
Turning to `CC(=O)N1c2ccc(-c3ccc(S(C)(=O)=O)cc3)cc2N(C)C[C@@H]1C` [Example I-104, (S)-1-(2,4-dimethyl-6-(4-(methylsulfonyl)phenyl)-3,4-dihydroquinoxalin-1(2H)-yl)ethanone], the half-inhibitory concentration (IC50) is over 0.5 µM in assay [1] and over 10 µM in assay [2].
The corresponding values for `CC(=O)N1c2ccccc2N(S(=O)(=O)c2cccc(C#N)c2)C[C@@H]1C` [Example I-944] are over 0.5 µM and over 10 µM.
The corresponding values for `COC(=O)N1c2ccc(-c3ccc(S(=O)(=O)CCO)cc3)cc2N(C(=O)C2CC2)C[C@@H]1C` [Example I-462] are 0.05 to 0.5 µM and 1 to 10 µM.
With `CC(C)OC(=O)N1C[C@H](C)N(C(=O)C2CC2)c2ccc(-c3cnn(CC(=O)N(C)C)c3)cc21` [Example I-311], the IC50 in assay [1] lay in the range of 0.05 to 0.5 µM; in assay [2], 1 to 10 µM.
Take `CC(=O)N1c2ccc(-c3cnn(CCN4CCOCC4)c3)cc2N(C(=O)C2CC2)C[C@@H]1C` [Example I-151, (S)-1-(4-(cyclopropanecarbonyl)-2-methyl-6-(1-(2-morpholinoethyl)-1H-pyrazol-4-yl)-3,4-dihydroquinoxalin-1(2H)-yl)ethanone]: the IC50 was 0.05 to 0.5 µM in assay [1] and 1 to 10 µM in assay [2].
Taken in the same sequence, the figures for `CC(=O)N1c2ccc(-c3cnn(CC(C)(C)O)c3)cc2N(C(=O)C2CC2)C[C@@H]1C` [Example I-343] were 0.05 to 0.5 µM and 1 to 10 µM.
As to `CC(=O)N1c2ccccc2N(S(=O)(=O)c2ccc(C(F)(F)F)cc2)C[C@@H]1C` [Example I-937], the half-maximal inhibitory concentration (IC50) is over 0.5 µM in assay [1] and over 10 µM in assay [2].
Taken in the same sequence, the figures for `CC(=O)N1c2ccccc2N(C(=O)C2CCCC2)C[C@@H]1C` [Example I-714] were over 0.5 µM and over 10 µM.
Regarding `CC(=O)N1c2ccc(-c3cnn(C4COC4)c3)cc2N(C(=O)OCC(F)F)C[C@@H]1C` [Example I-84, (S)-2,2-difluoroethyl 4-acetyl-3-methyl-7-(1-(oxetan-3-yl)-1H-pyrazol-4-yl)-3,4-dihydroquinoxaline-1(2H)-carboxylate], the results for the IC50 in assay [1] and in assay [2] were over 0.5 µM and 1 to 10 µM, respectively.
Consider `CC(=O)N1c2ccc(-c3cnn(C4COC4)c3)cc2N(C(=O)CC2CC2)C[C@@H]1C` [Example I-107, (S)-1-(4-acetyl-3-methyl-7-(1-(oxetan-3-yl)-1H-pyrazol-4-yl)-3,4-dihydroquinoxalin-1(2H)-yl)-2-cyclopropylethanone], for which the IC50 in assay [1] lay within 0.05 to 0.5 µM; in assay [2], 1 to 10 µM.
For the compound `CC(C)C(=O)N1c2ccc(-c3ccc(S(C)(=O)=O)cc3)cc2N(C(=O)c2ccco2)C[C@@H]1C` [Example I-370], the half-inhibitory concentration (IC50) was over 0.5 µM in assay [1] and over 10 µM in assay [2].
As for `CC(=O)N1c2ccc(-c3ccc(N4CCCS4(=O)=O)cc3)cc2N(C(=O)c2ccco2)C[C@@H]1C` [Example I-424], the half-inhibitory concentration (IC50) is under 0.05 µM in assay [1] and 0.1 to 1 µM in assay [2].
With `CC(=O)N1c2ccccc2N(Cc2ccc(OCCN(C)C)cc2)C[C@@H]1C` [Example I-907], the results for the IC50 in assay [1] and in assay [2] were over 0.5 µM and over 10 µM, respectively.
For `CC(=O)N1c2ccc(-c3cnn(CCS(C)(=O)=O)c3)cc2N(C(=O)Oc2ccccn2)C[C@@H]1C` [Example I-1318], the IC50 in assay [1] was in the range of 0.05 to 0.5 µM; in assay [2], 1 to 10 µM.
As for `CC(=O)N1c2ccc(-c3ccc(S(C)(=O)=O)cc3)cc2N(C(=O)c2ccc(S(=O)(=O)N(C)C)o2)C[C@@H]1C` [Example I-983], the figures for the IC50 in assay [1] and in assay [2] were over 0.5 µM and over 10 µM, respectively.
`CC(=O)N1c2ccc(-c3ccc(S(C)(=O)=O)cc3)cc2N(C(=O)c2ccc(F)cc2)C[C@@H]1C` [Example I-878]: the IC50 in assay [1] is 0.05 to 0.5 µM; in assay [2], over 10 µM.
For `CC(=O)N1c2ccc(-c3cccc(-c4ccco4)c3)cc2N(C(=O)c2ccco2)C[C@@H]1C` [Example I-855], the IC50 in assay [1] was under 0.05 µM; in assay [2] it was 1 to 10 µM.
With `CC(=O)N1c2ccccc2N(C(=O)c2csc(C)n2)C[C@@H]1C` [Example I-705], the figures for the 50% inhibitory concentration (IC50) in assay [1] and in assay [2] were over 0.5 µM and over 10 µM, respectively.
Take `COC(=O)N1C[C@H](C)N(C(C)=O)c2ccc(-c3ccc(S(C)(=O)=O)cc3)cc21` [Example I-235]: the half-inhibitory concentration (IC50) lay in the range of 0.05 to 0.5 µM in assay [1] and 1 to 10 µM in assay [2].
On to `CC(=O)N1c2ccc(-c3cnn(CCC#N)c3)cc2N(C(=O)Oc2cccnc2)C[C@@H]1C` [Example I-1288], for which the results for the half-inhibitory concentration (IC50) in assay [1] and in assay [2] were 0.05 to 0.5 µM and 1 to 10 µM, respectively.

Source of the values: patent publication US10703764B2, “Benzopiperazine compositions as BET bromodomain inhibitors” (FORMA Therapeutics, Inc., priority 2013, dated 2020).
